# pIC50: −log10 of the molar value. Like-named read-outs stand apart in the source and are kept apart here.
# What was measured:
# [1] = system: SU103 patient-derived colon cancer organoid model; assay: organoid colony formation assay, SU103; format: cell-based, human
# Protocol: (§1) The IC50 values for Compound 1 inhibition of colony formation and viability were determined for the patient-derived colon cancer organoid models: SU60, T002C, SU62, SU34, SU103, T03SC, and SU106, patient-derived pancreatic cancer organoid models PA016SF, PA0143F, T016P, and T028P, and a patient-derived breast cancer organoid model FS5S3.
# (§2) Colony formation and viability assays were performed in multiwell plates seeded with organoids using an in vitro culture system composed of a Matrigel layer, media containing a defined set of growth factors, and co-culture with Wnt3 A-secreting mouse embryonic fibroblasts. Assays were initiated by adding either DMSO as a negative control, or an inhibitor panobinostatat 100×IC50 concentration as a positive control, or serially diluted Compound 1. The cultures were incubated for 168 or 144 hours after which the number of viable organoids in each test well was assessed respectively using one of two detection methods: CTG or staining with calcein-AM followed by imaging and colony counting. Colony count or viability of cells treated with compound 1 was expressed as a percent of the negative control. Aggregated Percent of Control values were plotted against the corresponding Compound 1 concentration and the absolute IC50 value was determined from a non-linear regression curve as the concentration where inhibition was 50% of the control.
# [2] = system: SU34 patient-derived colon cancer organoid model; assay: organoid colony formation assay, SU34; format: cell-based, human
# Protocol: as §1, §2
# MDA-MB-231 cells = assay: cell cycle analysis in MDA-MB-231 cells; format: cell-based
# Protocol: FIG. 3 illustrates that Compound 1 induces cell cycle arrest in S-phase. […] Cell cycle analysis was performed with MDA-MB-231 cells and using MultiCycle AV DNA analysis software.
# ZR-75-1 = assay: cell-proliferation assay (MTS), ZR-75-1; format: cell-based; settings: ZR-75-1, human breast carcinoma, 168 hours
# Protocol: (§3) Compound 1 was evaluated in in vitro cell-proliferation assays (BrdU assay, MTS assay, or Cell Titer Glo (CTG) assay) in multiple cancer cell lines and patient-derived organoid models to determine half-maximal inhibitory concentrations (IC50s).
# (§4) Viability and BrdU thymidine incorporation assays were performed in multiwell plates seeded with cells in growth medium. After seeding, multiwell plates were cultured for 24 hours in a humidified incubator at 37° C. to promote adherence. […] The cultures were incubated for 168 hours after which the number of viable cells or the amount of thymidine incorporation in each test well was assessed by the methods as indicated above. Readouts were performed using an EnVision® Multilabel Reader (PerkinElmer, Waltham, MA) and the results were expressed as a percent of the negative control. Percent of Control values were plotted against the corresponding Compound 1 concentration and the relative IC50 value was determined from a non-linear regression curve as the concentration where inhibition was half-maximal. For cell lines where the number of IC50 determinations exceeded one, the IC50 was expressed as the mean IC50±SD.
# (§5) Half-maximal inhibitory concentration (IC50) values for Compound 1 inhibition of cell proliferation were determined for nine cancer cell lines and one normal human fibroblastcell line.
# [3] = system: SU106 patient-derived colon cancer organoid model; assay: organoid colony formation assay, SU106; format: cell-based, human
# Protocol: as §1, §2
# [4] = system: KYSE-150 human esophageal cancer xenograft; format: in vivo; settings: for Median Tumor Volumes Day 19: KYSE-150 CDX Study #1, female NSG mice; for % TGI / Median Tumor Volumes Diff.: KYSE-150 Study #1; for % TGI: Day 19; for Median Tumor Volumes Diff.: Day 19 minus Day 1
# Protocol: The therapeutic in vivo efficacy of Compound 1 was evaluated in SU60 colorectal cancer, KYSE-150 esophageal cancer, COH70 triple-negative breast cancer, GXA-3036 gastric adenocarcinoma and OCI-LY19 Diffuse Large B-Cell Non-Hodgkin's Lymphoma xenograft models. In all studies, efficacy was determined based on percent tumor growth inhibition (TGI), differences in mean tumor growth, and statistical assessment of differences in net tumor volume distributions on the day of TGI analysis between control and treated animals. Tolerability was assessed based on differences in mean body weights between control and treated animals over the course of the study.
# Study #1—The in vivo therapeutic efficacy and tolerability of Compound 1, administered orally as the lysine salt suspended in a vehicle comprised of 10% PEG 400 and 90% of 0.5% methylcellulose (MC), was evaluated in the KYSE-150 ESCC CDX model established in female NSG mice. As presented in Table 5, […] at 5, 15, or 50 mg/kg (free acid equivalents) administered on the 3 on/4 off schedule yielded dose-dependent TGIs of 19%, 50%, and 72%, respectively. […] As shown in FIG. 11 (left panel), tumor growth in the Compound 1-treated groups was reduced relative to control animals. The relative rates of tumor growth among the various Compound 1-treated groups were consistent with the TGI attained at study end. As presented in FIG. 11 (right panel), Compound 1 appeared well-tolerated with nominal mean body weight gains over the course of the study. Each mouse was inoculated subcutaneously in the right flank with 1×10^7 KYSE-150 tumor cells (0.1 ml) suspended in PBS. When the average tumor size reached ˜117 mm3, test animals were randomized into 4 groups consisting of 9 mice per group and treatments were initiated. Control mice received 10% PEG 400 and 90% of 0.5% MC vehicle PO 3 on/4 off. Treated mice received the Compound 1 lysine salt form suspended in vehicle at 5, 15, or 50 mg/kg on the same schedule. TGI was determined on Day 19 as (1−Difftreated/Diffcontrol)×100; The difference mean net tumor volumes on the day of TGI analysis for treated versus control animals was evaluated statistically using one-way ANOVA followed by Dunnett's multiple comparisons test; Adjusted p-values are shown where a calculated probability (p)≤0.05 was considered statistically significant. Individual tumors were measured twice weekly in three dimensions using a caliper, and the tumor volumes (TV) in mm3 were calculated using the formula: TV=0.5 (l×w×h), where l, w, and h are the tumor length, width, and height in mm, respectively; Mean tumor volumes SEM were calculated and plotted versus days of dosing (left panel). Body weights were measured twice weekly. Body weights±SEM were calculated and plotted versus days of dosing (right panel).
# KDM4 = assay: inhibition of H3K9me3 demethylation, TR-FRET LANCE detection; format: biochemical; settings: in the presence of α-KG
# Protocol: Inhibition of […] demethylation was measured at various Compound 1 concentrations in the presence of α-KG using time-resolved fluorescence-based (TR-FRET) LANCE® detection.
# IMR-90 = assay: cell-proliferation assay (BrdU, CTG), IMR-90 normal fibroblast; format: cell-based; settings: IMR-90, (normal) human fetal lung fibroblast, 168 hours
# Protocol: as §3, §4, §5
smiles,measurement,setting,value
"CC(C)c1ccc(N(C)c2ccc3c(c2)OCC[C@H]3CNc2cnccc2C(=O)O)cc1 [Compound 1, 3-({[(4R)-7-{methyl[4-(propan-2-yl)phenyl]amino}-3,4-dihydro-2H-1-benzopyran-4-yl]methyl}amino)pyridine-4-carboxylic acid]",pIC50,"[1]; Homo sapiens, SU103 colorectal carcinoma model",< 5.00
same,pIC50,"[1]; SU103 human colorectal carcinoma organoid, 144 hrs, Colony Counts",< 5.00
same,pIC50,"[2]; Homo sapiens, SU34 colorectal carcinoma model",< 5.00
same,pIC50,"[2]; SU34 human colorectal carcinoma organoid, 144 hrs, Colony Counts",< 5.00
same,effect on cell cycle,MDA-MB-231 cells,increased proportion of cells in S-phase in a dose-dependent manner
same,pIC50,ZR-75-1,< 5.00
same,pIC50,"[3]; Homo sapiens, SU106 colorectal carcinoma model",< 5.00
same,pIC50,"[3]; SU106 human colorectal carcinoma organoid, 144 hrs, Colony Counts",< 5.00
same,Median Tumor Volumes Day 19,[4]; lysine salt 5 mg/kg (free acid equivalents) PO 3 on/4 off,824 mm^3
same,Median Tumor Volumes Day 19,[4]; lysine salt 15 mg/kg (free acid equivalents) PO 3 on/4 off,569 mm^3
same,Median Tumor Volumes Day 19,[4]; lysine salt 50 mg/kg (free acid equivalents) PO 3 on/4 off,359 mm^3
same,% TGI,"[4]; 5 mg/kg PO 3 on/4 off, 5 mg/kg",19%
same,% TGI,"[4]; 5 mg/kg PO 3 on/4 off, listed as compound 4, 5 mg/kg",19%
same,Median Tumor Volumes Diff.,[4]; 5 mg/kg PO 3 on/4 off,719 mm^3
same,% TGI,"[4]; 15 mg/kg PO 3 on/4 off, 15 mg/kg",50%
same,% TGI,"[4]; 15 mg/kg PO 3 on/4 off, listed as compound 4, 15 mg/kg",50%
same,Median Tumor Volumes Diff.,[4]; 15 mg/kg PO 3 on/4 off,442 mm^3
same,% TGI,"[4]; 50 mg/kg PO 3 on/4 off, 50 mg/kg",72%
same,% TGI,"[4]; 50 mg/kg PO 3 on/4 off, listed as compound 4, 50 mg/kg",72%
same,Median Tumor Volumes Diff.,[4]; 50 mg/kg PO 3 on/4 off,250 mm^3
same,mode of inhibition of H3K9me3 demethylation,KDM4,reversible and competitive inhibition
same,pIC50,IMR-90,< 6.00

# Source: US20250025451A1, “TREATMENT OF CANCER WITH KDM4 INHIBITORS” (Celgene Corporation, priority 2021, published 2025)
